Measurements as given in PubChem BioAssay AID256 (DTP/NCI, 2004).
Where “and” joins values, the source holds several entries; their conditions need not be identical. Identical values can stand only once. Toxic doses and inconclusive results are not listed. The calls were made as follows: active = survival T/C of 150% or more; inactive = T/C below 125% in these data.

Test system: CD2F1 mice, L1210 leukemia ip, survival T/C
Assay: NCI In Vivo Anticancer Drug Screen. Data for tumor model L1210 Leukemia (intraperitoneal) in CD2F1 (CDF1) mice
Settings: endpoint: mean survival time, higher = longer survival
Summary of the method: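 Ratio T/C, where T is the treated-group value and C the vehicle-dosed control value, from mice implanted with a transplantable tumor.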

[1] = dose: 100.0 mg/kg/injection, schedule: Q01DX009 (ip), vehicle: saline with Tween-80
[2] = dose: 100.0 mg/kg/injection, schedule: Q04DX003 (ip), vehicle: saline with Tween-80
[3] = dose: 200.0 mg/kg/injection, schedule: Q01DX009 (ip), vehicle: saline with Tween-80
[4] = dose: 200.0 mg/kg/injection, schedule: Q04DX003 (ip), vehicle: saline with Tween-80
[5] = dose: 400.0 mg/kg/injection, schedule: Q01DX009 (ip), vehicle: saline with Tween-80
[6] = dose: 400.0 mg/kg/injection, schedule: Q04DX003 (ip), vehicle: saline with Tween-80
[7] = dose: 25.0 mg/kg/injection, schedule: Q01DX009 (ip), vehicle: saline with Tween-80
[8] = dose: 50.0 mg/kg/injection, schedule: Q01DX009 (ip), vehicle: saline with Tween-80
[9] = dose: 12.5 mg/kg/injection, schedule: Q01DX005 (ip), vehicle: water
[10] = dose: 25.0 mg/kg/injection, schedule: Q01DX005 (ip), vehicle: water
[11] = dose: 50.0 mg/kg/injection, schedule: Q01DX005 (ip), vehicle: water
[12] = dose: 100.0 mg/kg/injection, schedule: Q01DX005 (ip), vehicle: water
[13] = dose: 25.0 mg/kg/injection, schedule: Q04DX002 (ip), vehicle: saline with Tween-80
[14] = dose: 50.0 mg/kg/injection, schedule: Q04DX002 (ip), vehicle: saline with Tween-80
[15] = dose: 100.0 mg/kg/injection, schedule: Q04DX002 (ip), vehicle: saline with Tween-80
[16] = dose: 200.0 mg/kg/injection, schedule: Q04DX002 (ip), vehicle: saline with Tween-80

Measured: T/C

NC(N)=N/N=C/c1ccc(Cl)cc1Cl
inactive: dose: 8.0 mg/kg/injection, schedule: Q01DX Z (ip), vehicle: saline 88 % of control | dose: 16.0 mg/kg/injection, schedule: Q01DX Z (ip), vehicle: saline 96 % of control | dose: 31.0 mg/kg/injection, schedule: Q01DX Z (ip), vehicle: saline 92 % of control | dose: 62.0 mg/kg/injection, schedule: Q01DX Z (ip), vehicle: saline 95 % of control

CC(=O)OCC1OC(n2ncc3c2ncn2nnnc32)C(OC(C)=O)C1OC(C)=O (configuration not stated)
inactive: dose: 18.75 mg/kg/injection, schedule: Q01DX005 (ip), vehicle: distilled water + alcohol 100 % of control | dose: 37.5 mg/kg/injection, schedule: Q01DX005 (ip), vehicle: distilled water + alcohol 91 % of control | dose: 75.0 mg/kg/injection, schedule: Q01DX005 (ip), vehicle: distilled water + alcohol 103 % of control | dose: 150.0 mg/kg/injection, schedule: Q01DX005 (ip), vehicle: distilled water + alcohol 100 % of control | dose: 300.0 mg/kg/injection, schedule: Q01DX005 (ip), vehicle: distilled water + alcohol 103 % of control

O=C(O)/C=C/C(=O)Nc1cccc2cccnc12
inactive: [1] 93 % of control | [2] 98 % of control | [3] 102 % of control | [4] 93 % of control | [5] 100 % of control | [6] 98 % of control

Cc1ccc(-c2nc(SCc3ccccc3)[nH]c(=O)c2CCO)cc1
inactive: dose: 100.0 mg/kg/injection, schedule: Q04DX003 (ip), vehicle: Klucel (hydroxypropylcellulose) (HPC) 93 % of control | dose: 200.0 mg/kg/injection, schedule: Q04DX003 (ip), vehicle: Klucel (hydroxypropylcellulose) (HPC) 96 % of control | dose: 400.0 mg/kg/injection, schedule: Q04DX003 (ip), vehicle: Klucel (hydroxypropylcellulose) (HPC) 91 % of control

Cc1[nH]c(C(=O)NN)c(C)c1C(=O)NN
inactive: [7] 111 % of control | [8] 100 % of control | [1] 103 % of control | [2] 98 % of control

O=C1C=C(NC2CCCCCC2)C(=O)c2nccnc21
inactive: dose: 6.25 mg/kg/injection, schedule: Q01DX009 (ip), vehicle: saline with Tween-80 91 % of control | dose: 12.5 mg/kg/injection, schedule: Q01DX009 (ip), vehicle: saline with Tween-80 95 % of control | [7] 91 % of control | [8] 93 % of control

CCC(C)C(=O)CN(C)C (configuration not stated)
inactive: dose: 100.0 mg/kg/injection, schedule: Q04DX003 (ip), vehicle: saline 100 % of control | dose: 200.0 mg/kg/injection, schedule: Q04DX003 (ip), vehicle: saline 96 % of control

CC1=NN(c2ccccc2)C(=O)C1CC1C(=O)N(c2ccccc2)N=C1C (configuration not stated)
inactive: [1] 101 % of control | [2] 96 % of control | [3] 107 % of control | [4] 92 % of control | [5] 101 % of control | [6] 88 % of control

OC1CCCCO1 (configuration not stated)
inactive: [2] 100 % of control | [4] 103 % of control | [6] 103 % of control

Cc1nc2c(c(=O)[nH]1)C(c1ccccc1)C(C)(C)O2 (configuration not stated)
inactive: [1] 96 % of control | [2] 93 % of control | [3] 93 % of control | [4] 96 % of control | [5] 93 % of control | [6] 93 % of control

CC(=O)Nc1ccc(C#[N+][S-])cc1
inactive: dose: 3.13 mg/kg/injection, schedule: Q01DX001 (ip), vehicle: Klucel (hydroxypropylcellulose) (HPC) 104 % of control | dose: 6.25 mg/kg/injection, schedule: Q01DX001 (ip), vehicle: Klucel (hydroxypropylcellulose) (HPC) 97 % of control | dose: 12.5 mg/kg/injection, schedule: Q01DX001 (ip), vehicle: Klucel (hydroxypropylcellulose) (HPC) 93 % of control

O=C(O)CS(=O)(=O)CC(=O)O
inactive: dose: 25.0 mg/kg/injection, schedule: Q01DX001 (ip), vehicle: saline with Tween-80 93 % of control | dose: 50.0 mg/kg/injection, schedule: Q01DX001 (ip), vehicle: saline with Tween-80 104 % of control | dose: 50.0 mg/kg/injection, schedule: Q01DX009 (ip), vehicle: saline 90 % of control | dose: 100.0 mg/kg/injection, schedule: Q01DX001 (ip), vehicle: saline with Tween-80 102 % of control | dose: 100.0 mg/kg/injection, schedule: Q01DX009 (ip), vehicle: saline 89 % of control | dose: 200.0 mg/kg/injection, schedule: Q01DX009 (ip), vehicle: saline 93 % of control

S=C1NCCO1
inactive: [1] 100 % of control and 95 % of control | [2] 95 % of control | [3] 91 % of control and 97 % of control | [4] 93 % of control | [5] 112 % of control | [6] 104 % of control

CCCC(=O)Nc1ncnc2c1[nH]c(=O)n2C1OC2COP(=O)(O)OC2C1O (configuration not stated)
inactive: dose: 6.25 mg/kg/injection, schedule: Q01DX005 (ip), vehicle: water 97 % of control | [9] 97 % of control | [10] 93 % of control | [11] 93 % of control | [12] 95 % of control

CCOC(=O)C1(C2=NC(C)(C)CC(C)O2)CCCCC1 (configuration not stated)
inactive: dose: 100.0 mg/kg/injection, schedule: Q04DX003 (ip), vehicle: acetone 96 % of control | dose: 200.0 mg/kg/injection, schedule: Q04DX003 (ip), vehicle: acetone 90 % of control | dose: 400.0 mg/kg/injection, schedule: Q04DX003 (ip), vehicle: acetone 105 % of control

OCC1OC(c2nn(-c3ccccc3)[n+](-c3ccccc3)n2)C(O)C1O (configuration not stated)
inactive: [9] 106 % of control | [10] 97 % of control | [11] 95 % of control | [12] 106 % of control | dose: 200.0 mg/kg/injection, schedule: Q01DX005 (ip), vehicle: water 103 % of control

CC1(C(=O)O)C2C3C=CC(C3)C21 (configuration not stated)
inactive: [1] 100 % of control | [3] 97 % of control | [5] 103 % of control

COc1ccc(O)c(CC(C)C)c1
inactive: dose: 100.0 mg/kg/injection, schedule: Q01DX009 (ip), vehicle: acetone 100 % of control | dose: 200.0 mg/kg/injection, schedule: Q01DX009 (ip), vehicle: acetone 104 % of control | dose: 400.0 mg/kg/injection, schedule: Q01DX009 (ip), vehicle: acetone 96 % of control

CC(=O)Nc1cccc(OCCOc2ccccc2[N+](=O)[O-])c1
inactive: dose: 100.0 mg/kg/injection, schedule: Q04DX002 (ip), vehicle: Klucel (hydroxypropylcellulose) (HPC) 95 % of control | dose: 200.0 mg/kg/injection, schedule: Q04DX002 (ip), vehicle: Klucel (hydroxypropylcellulose) (HPC) 107 % of control | dose: 400.0 mg/kg/injection, schedule: Q04DX002 (ip), vehicle: Klucel (hydroxypropylcellulose) (HPC) 103 % of control

CN1C(=O)C2CCC1C(O)C2 (configuration not stated)
inactive: [13] 98 % of control | [14] 106 % of control | [15] 98 % of control | [16] 95 % of control

CCCCCCCCCCCCCCCCCCc1ccc(O)cc1O
inactive: [1] 96 % of control | [3] 101 % of control | [5] 104 % of control

COC(=O)C1C(C(C)=O)C2C(=O)C3C(C(=O)OC)C(C(=O)OC)C3C(=O)C12 (configuration not stated)
inactive: [13] 93 % of control | [14] 96 % of control | [15] 100 % of control | [16] 96 % of control

OC(C=C(C(F)(F)F)C(F)(F)F)c1cccs1 (configuration not stated)
inactive: [1] 95 % of control
